The text below walks through data of US20100184094A1, “USE OF MDCK CELLS IN THE EVALUATION OF CHOLESTEROL MODULATORS” (priority 2007, published 2010).

The target of this experiment is T1, rat NPC1L1 (Rattus norvegicus, UniProt Q6T3U3).
T1 construct: expressed in transfected cells
In words: [3H]AS binding to rNPC1L1/HEK293 cells (saturation, kinetics, competition, acid wash). The conditions noted are these: for IC50: 5.36 nM [3H]AS, 4 h, 37° C., read-out: IC50 inhibition of [3H]AS binding; for Ki: rNPC1L1/HEK293 cells. How it is done:
rNPC1L1/HEK293 and TsA201 cells were seeded at a density of 10,000 cells per well in 96-well poly-D-lysine coated plates and cells were allowed to attach for approximately 18 h at 37° C. TsA201 cells were subsequently transfected with dog NPC1L1/pcDNA5/FRT according to the manufacturer's instructions (Roche) and incubated for 3 days at 37° C. MDCKII-derived, LLC-PKI, HepG2, or CaCo-2 cells were seeded at a density of 25,000 cells per well in 96-well tissue culture treated plates, and cells were allowed to attach and differentiate for approximately 72 h at 37° C., except for CaCo-2 cells where differentiation took approximately 14 days at 37° C. […] Duplicate samples were averaged for each experimental point. […] To determine the kinetics of ligand association, cells were incubated with [^3H]AS for different periods of time. Dissociation kinetics were determined by addition of 100 μM EZE-gluc, and incubating for different periods of time. Nonspecific binding was defined in the presence of 100 μM EZE-gluc. At the end of the incubation period, cells were washed twice with 200 μl of pre-warmed DMEM to separate bound from free ligand, 1% SDS was added to the wells followed by 5 ml of Scintillant, and radioactivity associated with cells was determined using a β-counter. […] Thereafter, plates were placed on ice and cells were washed twice with ice-cold PBS, followed by ice-cold acid wash with DMEM, pH 3.5, for 1, 5 or 15 minutes. […] For Transwell experiments, MDCKII cells were seeded at 200,000 cells/well in a 24-well plate and incubated for 3 days at 37° C. […] Thereafter, both apical and basolateral compartments were washed three times with PBS, and the Transwell filter was cut out and its associated radioactivity determined using afi-counter. Data from saturation, competition and ligand dissociation experiments were analyzed as described in the literature; see, Priest, et al., 2004 Biochemistry 43:9866-9876; Knaus et al., 1995 Biochemistry 34:13627-13634. The association rate, k1, was determined by employing the pseudo-first-order rate equation k1=kobs([LR]e/[L][LR]max)) where [LR]max is the concentration of the complex at equilibrium, [L] is the concentration of ligand, [LR]max is the total receptor concentration, kobs is the slope of the pseudo-first order plot, ln([LR]e/([LR]e−[LR]t)) versus time, and [LR]t is the receptor-ligand complex at one given time point t.
Incubation of rNPC1L1/HEK293 cells with 5 nM [311]AS results in a time-dependent association of ligand with cells that reaches equilibrium in ˜3 h (FIG. 1B). The nonspecific binding component is time-independent and has been subtracted from the experimental data. A semilogarithmic transformation of the data yielded a linear dependence (FIG. 1B, inset), as expected for a pseudo-first order reaction, and the slope of this line gives kobs of 0.0208 min^−1. The association rate constant, k1, calculated as described under Example 3, is 2.4×10^6 M^−1 min^−1.
Ki values, determined as described above, are presented in Table 1 below and display the expected rank order of potency for interaction of these ligands with rat NPC1L1; Garcia-Calvo et al., 2005 Proc. Natl. Acad. Sci. USA 102:8132-8137.
Such an approach has previously been previously used to characterize cell surface, non-covalent interactions; Hopkins & Trowbridge, 1983 J. Cell Biol. 97:508-521; Chen et al., 1998 Proc. Natl. Acad. USA 95:6373-6378.

As to `O=C1[C@H](CC[C@H](O)c2ccc(F)cc2)[C@@H](c2ccc(O)cc2)N1c1ccc(F)cc1` [EZE, Ezetimibe], the IC50 came to 398 nM and affinity was put at a Ki of 209 ± 40.4 nM.
On the same counts, the results for `O=C(O)[C@H]1O[C@@H](Oc2ccc([C@@H]3[C@@H](CC[C@H](O)c4ccc(F)cc4)C(=O)N3c3ccc(F)cc3)cc2)[C@H](O)[C@@H](O)[C@@H]1O` [EZE-gluc, ezetimibe glucuronide] are 182 nM and 95.1 ± 8.62 nM.
The corresponding values for `COC(=O)[C@H]1O[C@@H](Oc2ccc([C@@H]3[C@@H](CC[C@H](O)c4ccc(F)cc4)C(=O)N3c3ccc(C#CCNS(C)(=O)=O)cc3)cc2)[C@H](O)[C@@H](O)[C@@H]1O` [PS, 4-[(2S,3R)-3-[(3S)-3-(4-fluorophenyl)-3-hydroxypropyl]-1-(4-{3-[(methylsulfonyl)amino]prop-1-yn-1-yl}phenyl)-4-oxoazetidin-2-yl]phenyl methyl-β-D-glucopyranosiduronate] are 6.61 nM and 4.07 ± 1.47 nM.
